Data reported in patent US11187660B2, “Fluorescent probes for monitoring voltage by photo-induced electron transfer” (The Regents of the University of California, priority 2011, dated 2021).

Assays:
[1] = Absorbance and emission spectra in aqueous buffer with Triton X-100; assay type: physicochemical; settings: 5 mM sodium phosphate, pH 9, 0.1% Triton X-100
Description: FIG. 8A, FIG. 8B, and FIG. 8C show the normalized absorbance and emission spectra for exemplary compounds of the invention in 5 mM sodium phosphate, pH 9 with 0.1% Triton X-100. Black lines are absorbance spectra; grey lines are emission spectra. a) VF1.4.Cl, b) VF2.4.Cl, and c) VF2.1.Cl.
All dyes feature emission and excitation profiles typical of dichlorofluoresceins (VF1.4.Cl: λmax=521 nm, ε=93,000 M^−1·cm^−1, λem=534 nm, Φ=0.24; VF2.4.Cl: λmax=522 nm, ε=97,000 M^−1·cm^−1, λem=536 nm, Φ=0.054; VF2.1.Cl: λmax=522 nm, ε=98 000 M^−1·cm^−1, λcm=535 nm, Φ=0.057, 5 mM sodium phosphate, pH 9, 0.1% Triton X-100) (FIG. 8).
UV absorbance and fluorescence spectra were recorded on a Cary 3E (Varian) and Fluorolog 2 (Spex) fluorimeter, respectively. Analytical, semi-preparative, and preparative HPLCs were performed on Agilent HPLCs, with Luna C18(2) columns (Phenomenex) using water (solvent A) and acetonitrile (solvent B) with 0.05% TFA as an additive. Low resolution ESI mass spectrometry was performed on an Agilent LC/MSD Trap XCT coupled to an Agilent HPLC. High resolution mass spectra were acquired on a ThermoFisher Orbitrap XL hybrid mass spectrometer. ^1H NMR spectra were collected in CDCl3 or d6-DMSO (Cambridge Isotope Laboratories, Cambridge, Mass.) at 25° C. on a 400 Varian Mercury Plus or Jeol ECA 500 spectrometer at the Department of Chemistry and Biochemistry NMR Facility at the University of California, San Diego. All chemical shifts are reported in the standard δ notation of parts per million using the peak of residual proton signals of CDCl3 or d6-DMSO as an internal reference.

HEK cells = assay: Bleach rate in HEK cells; assay type: cell-based, human; settings: for bleach rate: HEK cells, 7 W/cm^2; for bleach rate, fold smaller than di-4-ANEPPS: identical illumination conditions
Description: The dibutyl (VFx.4.Cl) dyes stain the cell membranes of HEK293 cells when loaded at a concentration of 2 μM for 15 min at 37° C. in buffer with 0.1% DMSO as cosolvent (FIG. 9A, and FIG. 10). […] The bleach rates of the probes were tested in HEK cells and compared with di-4-ANEPPS. The bleach rates for VF1.4.Cl, VF2.4.Cl, and VF2.1.Cl at 7 W/cm^2 were measured to be 3.9±0.1×10^−2 s^−1, 1.8±0.1×10^−2 s^−1, and 8.0±0.1×10^−3 s^−1, respectively.
For studies to determine excitation sensitivity of dyes, illumination was provided by a Polychrom IV light source (T.I.L.L. Photonics GMBH) with a mechanical shutter (Uniblitz VS25). For all other studies, light was provided by an Xenon arc lamp powered by an Optiquip Power supply (Optiquip) with a mechanical shutter controlled by a Lambda 10-2 controller (Sutter). Light from the Xenon arc lamp was filtered through a 480 nm filter (30 nm bandpass, Chroma), a 510 nm dichroic (Semrock), a 530 nm emission filter (50 nm bandpass, Semrock), and focused through a 40×/1.4 oil objective. For di-4-ANEPPS imaging, a 625 nm emission filter with a 50 nm bandpass was used. Bleaching studies used identical illumination conditions (480/30 nm excitation, 510 nm dichroic, 7 W/cm^2 output) and were corrected by normalizing for the extinction coefficient at the excitation wavelengths (465-495 nm).

Row | SMILES | Φ [1] | ε [1] | λem [1] [nm] | λmax [1] [nm] | bleach rate (HEK cells) | bleach rate, fold smaller than di-4-ANEPPS (HEK cells)
1 | CN(C)c1ccc(/C=C/c2ccc(/C=C/c3ccc(-c4c5cc(Cl)c(=O)cc-5oc5cc(O)c(Cl)cc45)c(S(=O)(=O)O)c3)cc2)cc1 [VF2.1.Cl, 5-(4-(4-(dimethyllamino)styryl)styryl)-2-(2,7-dichloro-6-hydroxy-3-oxo-3H-xanthen-9-yl)benzenesulfonic acid] | 0.057 | 98 000 M^−1·cm^−1 | 535 | 522 | 8.0±0.1×10^−3 s^−1 | ninefold smaller
2 | CCCCN(CCCC)c1ccc(/C=C/c2ccc(/C=C/c3ccc(-c4c5cc(Cl)c(=O)cc-5oc5cc(O)c(Cl)cc45)c(S(=O)(=O)O)c3)cc2)cc1 [VF2.4.Cl, 5-(4-(4-(dibutylamino)styryl)styryl)-2-(2,7-dichloro-6-hydroxy-3-oxo-3H-xanthen-9-yl)benzenesulfonic acid] | 0.054 | 97,000 M^−1·cm^−1 | 536 | 522 | 1.8±0.1×10^−2 s^−1 | four-
